Values of other authors in patent US12397030B2, “Polyphenol compositions and uses thereof” (METAGENICS, INC., priority 2019, dated 2025).

Tests used:
[1] = humans
[2] = tested on: ATP-binding cassette transporter A1 (ABCA1); conditions: enhances reverse cholesterol transport

| Compound | time by which no longer detected [1] | time to appearance following consumption [1] | elimination half-life ([1]; after consumption) | ABCA1 expression in macrophages [2] |
| --- | --- | --- | --- | --- |
| O=c1oc2c(O)c(O)cc3c(=O)oc4c(O)c(O)cc1c4c23 [ellagic acid] | ≤ 5 h | ~30 min | 42.6 min | – |
| O=c1oc2cc(O)ccc2c2ccccc12 [urolithin B] | – | – | – | upregulation |
